Results taken from BindingDB's records for doi:10.1124/jpet.104.074864 (University of Piemonte Orientale, 2005).

Experiments:
[1] = target: T1, Fatty-acid amide hydrolase 1 [30-579] (Rattus norvegicus, UniProt P97612)
T1 construct: 30-579
T1 sequence (P97612 whole entry): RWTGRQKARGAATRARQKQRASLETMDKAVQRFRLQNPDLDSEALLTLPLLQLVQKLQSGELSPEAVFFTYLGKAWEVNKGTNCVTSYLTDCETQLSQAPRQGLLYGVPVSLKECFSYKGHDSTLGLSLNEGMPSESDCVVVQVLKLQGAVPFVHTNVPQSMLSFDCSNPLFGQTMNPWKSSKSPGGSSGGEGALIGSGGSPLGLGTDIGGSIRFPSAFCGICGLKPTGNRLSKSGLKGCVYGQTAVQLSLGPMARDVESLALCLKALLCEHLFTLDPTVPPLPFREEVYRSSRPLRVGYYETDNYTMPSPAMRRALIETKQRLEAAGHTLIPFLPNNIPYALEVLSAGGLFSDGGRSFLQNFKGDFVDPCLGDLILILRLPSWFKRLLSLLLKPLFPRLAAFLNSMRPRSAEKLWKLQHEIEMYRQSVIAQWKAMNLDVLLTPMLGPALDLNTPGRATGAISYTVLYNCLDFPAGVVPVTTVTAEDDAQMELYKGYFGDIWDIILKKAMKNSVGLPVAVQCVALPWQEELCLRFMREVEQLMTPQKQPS

Cannabinoid receptor 2 = Cannabinoid receptor 2 (Homo sapiens, UniProt P34972)
Sequence of Cannabinoid receptor 2 (P34972 whole entry): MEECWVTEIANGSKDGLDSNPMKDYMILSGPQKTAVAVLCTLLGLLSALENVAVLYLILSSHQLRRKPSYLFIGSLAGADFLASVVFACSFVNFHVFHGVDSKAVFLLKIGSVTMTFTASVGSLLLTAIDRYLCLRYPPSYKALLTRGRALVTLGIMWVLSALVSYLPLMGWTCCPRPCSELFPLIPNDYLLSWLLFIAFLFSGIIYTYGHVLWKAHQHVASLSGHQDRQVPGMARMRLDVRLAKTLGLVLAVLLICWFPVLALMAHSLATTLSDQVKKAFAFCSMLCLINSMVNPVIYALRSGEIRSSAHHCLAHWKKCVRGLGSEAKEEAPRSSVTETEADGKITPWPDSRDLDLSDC

Cannabinoid receptor 1 = Cannabinoid receptor 1 (Homo sapiens, UniProt P21554)
Sequence of Cannabinoid receptor 1 (P21554 whole entry): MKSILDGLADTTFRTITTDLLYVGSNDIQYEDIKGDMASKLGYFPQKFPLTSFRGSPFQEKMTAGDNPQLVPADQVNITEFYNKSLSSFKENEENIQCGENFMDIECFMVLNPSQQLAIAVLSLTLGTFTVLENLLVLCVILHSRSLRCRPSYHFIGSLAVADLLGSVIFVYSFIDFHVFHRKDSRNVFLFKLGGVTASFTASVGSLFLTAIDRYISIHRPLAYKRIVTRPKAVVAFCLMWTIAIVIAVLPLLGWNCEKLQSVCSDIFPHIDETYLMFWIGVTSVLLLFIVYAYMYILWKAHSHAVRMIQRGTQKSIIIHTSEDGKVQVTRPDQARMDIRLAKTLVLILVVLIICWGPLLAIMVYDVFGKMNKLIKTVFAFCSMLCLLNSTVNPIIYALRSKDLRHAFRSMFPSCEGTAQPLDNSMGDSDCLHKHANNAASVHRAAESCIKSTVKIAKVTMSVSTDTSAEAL

SMILES: COc1cc(CNC(=O)CCCCC=CC(C)C)ccc1O [CAS_404-86-4]
- Ki [1]: > 10 µM
- Ki (Cannabinoid receptor 2): > 10 µM

SMILES: CCCCCCCCC=CCCCCCCCC(=O)NCc1ccc(O)c(OC)c1 [CAS_58493-49-5]
- Ki [1]: > 10 µM
- Ki (Cannabinoid receptor 2): > 10 µM
- Ki (Cannabinoid receptor 1): > 10 µM

SMILES: CCCCCC[C@H](CC=CCCCCCCCC(=O)NCc1cc(I)c(O)c(OC)c1)OC(=O)Cc1ccccc1 [PhAR, 5-I]
- Ki [1]: > 10 µM
- Ki (Cannabinoid receptor 2): 1.5 µM
- Ki (Cannabinoid receptor 1): 5 µM

SMILES: CCCCCC[C@H](CC=CCCCCCCCC(=O)NCc1cc(OC)c(O)cc1I)OC(=O)Cc1ccccc1 [PhAR, 6-I]
- Ki [1]: > 10 µM
- Ki (Cannabinoid receptor 2): 2.2 µM
- Ki (Cannabinoid receptor 1): 2.5 µM

SMILES: CCCCCCC(CCCCCCCCCCC(=O)NCc1ccc(O)c(OC)c1)OC(=O)Cc1ccccc1 (stereo not given) [PhAR, Di-hydro]
- Ki [1]: > 10 µM
- Ki (Cannabinoid receptor 2): 1.1 µM
- Ki (Cannabinoid receptor 1): 5 µM

SMILES: CCCCCCC(C/C=C/CCCCCCCC(=O)NCc1ccc(O)c(OC)c1)OC(=O)Cc1ccccc1 (stereo not drawn) [PhAR, ent]
- Ki [1]: > 10 µM
- Ki (Cannabinoid receptor 2): 0.4 µM
- Ki (Cannabinoid receptor 1): 2.4 µM

SMILES: CCCCCC[C@H](CC=CCCCCCCCC(=O)NCc1ccc(O)c(OC)c1)OC(=O)Cc1ccccc1 [PhAR]
- Ki [1]: > 10 µM
- Ki (Cannabinoid receptor 2): 0.3 µM
- Ki (Cannabinoid receptor 1): 2.2 µM

SMILES: CCCCCC[C@H](CC=CCCCCCCCC(=O)NCc1ccc(O)c(OC)c1)OC(C)=O [Rinvanil, Acetyl]
- Ki [1]: > 10 µM
- Ki (Cannabinoid receptor 2): > 10 µM
- Ki (Cannabinoid receptor 1): > 10 µM

SMILES: CCCCCC[C@H](CC=CCCCCCCCC(=O)NCc1ccc(O)c(OC)c1)OC(=O)c1ccccc1 [Rinvanil, Benzoil]
- Ki [1]: > 10 µM
- Ki (Cannabinoid receptor 2): 1.4 µM
- Ki (Cannabinoid receptor 1): 1.3 µM

SMILES: CCCCCC[C@H](CC=CCCCCCCCC(=O)NCc1ccc(O)c(OC)c1)OC(=O)CCc1ccccc1 [Rinvanil, Phenyl-propionyl]
- Ki [1]: > 10 µM

SMILES: CCCCCC[C@@H](O)CC=CCCCCCCCC(=O)NCc1ccc(O)c(OC)c1 [Rinvanil]
- Ki [1]: > 10 µM
- Ki (Cannabinoid receptor 2): > 10 µM
- Ki (Cannabinoid receptor 1): > 10 µM
